According to EP4378448B1, “EXTRACT OF FLOWERS, LEAVES AND/OR SEED PODS OF IMPATIENS AND LEAVES OF PANDANUS, IN DRIED AND LIQUID FORM, A METHOD OF ITS OBTAINING AND USE THEREOF” (PBCLABS Sp. z o.o., priority 2022, dated 2024):

Tests used:
Format in all cases: biochemical
[1] = molecular target: T1, porcine pancreatic elastase (Sus scrofa, UniProt P00772); test: Inhibition of elastase activity (AAAPVN substrate); conditions: 100 µg/mL (extract in glycerol; EGCG standard at 100 µg/mL)
T1 construct: purchased Sigma-Aldrich
Description: The method using porcine pancreatic elastase (PE - E.C.3.4.21.36; Sigma-Aldrich) was used for the study, which was dissolved in distilled water to prepare a stock solution with a concentration of 3.33 mg/mL. The substrate […] (AAAPVN; Sigma-Aldrich) was dissolved in 1.6 mM Tris-HCl buffer (pH 8.0). The extract of Example 1 dissolved in glycerol (concentrations of 5-100 µg/mL) was incubated with the enzyme for 15 minutes before adding the substrate to start the reaction. The final reaction mixture in the well of the 96-well plate (total volume 200 µL) contained buffer, 0.8 mM of AAAPVN, 1 µg/mL of elastase and 25 µL of extract at the appropriate concentration. Epigallocatechin gallate (EGCG; Supelco) at the concentration of 100 µg/mL was used as a standard. Negative controls were performed using water. Absorbance values were measured immediately after substrate addition and then after 20 minutes at wavelength of λ=410 nm.

[2] = test system: collagenase from Clostridium haemolyticum; test: Inhibition of collagenase activity (FALGPA substrate); conditions: 100 µg/mL (extract in glycerol; EGCG standard at 100 µg/mL)
Description: The enzymatic method for the determination of collagenase (EC 3.4.24.3) using FALGPA (N-(3-[2-furyl]acryloyl)-Leu-Gly-Pro-Ala) as substrate for collagenase, which was dissolved in 50 mM Tricine buffer (pH 7.5) at an initial concentration of 0.8 U/mL, was used for the study. FALGPA was dissolved in Tricine buffer to 2 mM. Various concentrations were prepared from the lyophilised extract of Example 1 by dissolving in glycerol and incubating with the enzyme for 15 minutes before adding the substrate to start the reaction. The final reaction mixture (150 µL) contained Tricine buffer, 0.8 mM of FALGPA, 0.1 U of collagenase and the extract at appropriate concentration. Epigallocatechin gallate (EGCG; Supelco) at the concentration of 100 µg/mL was used as a standard. The absorbance at wavelength of λ=345 nm was measured immediately after substrate addition and then continuously for 20 minutes.

soybean lipoxygenase = molecular target: T2, soybean lipoxygenase (Glycine max, UniProt P08170); test: Anti-inflammatory properties, lipoxygenase inhibition; conditions: positive control, concentration not given
T2 construct: purchased Sigma-Aldrich Chemie GmbH, Steinheim, Germany
T2 sequence (P08170 1-839): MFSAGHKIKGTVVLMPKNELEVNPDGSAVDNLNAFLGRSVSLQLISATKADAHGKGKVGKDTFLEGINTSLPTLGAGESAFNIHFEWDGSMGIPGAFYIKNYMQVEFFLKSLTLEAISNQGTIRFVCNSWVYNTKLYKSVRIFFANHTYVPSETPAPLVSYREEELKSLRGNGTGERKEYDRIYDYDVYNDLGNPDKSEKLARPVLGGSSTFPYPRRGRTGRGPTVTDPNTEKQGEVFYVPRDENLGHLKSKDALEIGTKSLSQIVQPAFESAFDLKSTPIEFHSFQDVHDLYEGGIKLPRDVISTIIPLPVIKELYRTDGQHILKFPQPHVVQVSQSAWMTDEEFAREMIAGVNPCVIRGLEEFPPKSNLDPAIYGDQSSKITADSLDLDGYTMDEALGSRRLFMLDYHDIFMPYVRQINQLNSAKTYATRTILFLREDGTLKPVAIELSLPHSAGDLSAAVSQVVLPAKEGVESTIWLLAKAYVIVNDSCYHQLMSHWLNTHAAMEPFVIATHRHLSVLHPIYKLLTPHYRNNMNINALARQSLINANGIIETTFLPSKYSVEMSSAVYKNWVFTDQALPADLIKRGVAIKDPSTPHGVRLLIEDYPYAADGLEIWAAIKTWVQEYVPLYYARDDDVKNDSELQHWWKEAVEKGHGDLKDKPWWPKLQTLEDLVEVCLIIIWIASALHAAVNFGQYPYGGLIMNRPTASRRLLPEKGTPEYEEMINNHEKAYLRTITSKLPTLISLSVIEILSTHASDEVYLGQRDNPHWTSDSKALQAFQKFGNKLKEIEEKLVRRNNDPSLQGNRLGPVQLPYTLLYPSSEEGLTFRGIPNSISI
Description: The study of anti-inflammatory activity of the extract of Example 1 was assessed on the basis of lipoxygenase inhibition using a spectrophotometric method in 96-well plates. For this purpose, 100 µL of various concentrations of extract solution in potassium phosphate buffer (pH = 8.5), 50 µL of soybean lipoxygenase solution (LOX; 167 U/mL; Sigma-Aldrich Chemie GmbH, Steinheim, Germany) in potassium phosphate buffer (pH = 8.5), and finally 50 µL of linoleic acid solution (LA; 134 µM; Sigma-Aldrich Chemie GmbH, Steinheim, Germany) were added to the wells. Changes in absorbance at 234 nm were then measured for a period of 25 minutes with intervals of 30 seconds. Indomethacin (Sigma-Aldrich) was used as a positive control. The activity of the extract was calculated as the percentage of LOX enzyme activity (% of activity) in relation to the maximal activity (negative control - solution without studied extract) after subtracting the absorbance of the extract at 234 nm in all cases. Absorbance values at the 10th minute of the reaction were used for the calculations.

fungal tyrosinase = test: Inhibition of fungal tyrosinase activity (L-DOPA substrate); conditions: standard at 100 µL/mL
Description: The tyrosinase (EC 1.14.18.1, 25 KU, fungal tyrosinase, Sigma-Aldrich) inhibitory effect was measured using L-3,4-dihydroxyphenylalanine (L-DOPA, Supelco) as a substrate. To perform it, various concentrations of the studied extract (20 µL), tyrosinase solution (200 U/mL, 40 µL) and phosphate buffer (100 µL, 50 mM, pH 6.5) were applied to a 96-well plate, and then incubated for 15 minutes at 25°C. The reaction was started with the addition of L-DOPA (40 µL) and incubated for a further 15 minutes, after which the absorbance was measured at wavelength of λ=475 nm compared to the control without the inhibitor. In the control sample, representing 100% of enzyme activity, phosphate buffer was added instead of the extract. Tyrosinase inhibitory activity was determined by comparing the enzyme activity in samples with and without the assessed inhibitor. Kojic acid (Supelco) at a concentration of 100 µL/mL was used as a standard.

T1 sequence (P00772 27-266): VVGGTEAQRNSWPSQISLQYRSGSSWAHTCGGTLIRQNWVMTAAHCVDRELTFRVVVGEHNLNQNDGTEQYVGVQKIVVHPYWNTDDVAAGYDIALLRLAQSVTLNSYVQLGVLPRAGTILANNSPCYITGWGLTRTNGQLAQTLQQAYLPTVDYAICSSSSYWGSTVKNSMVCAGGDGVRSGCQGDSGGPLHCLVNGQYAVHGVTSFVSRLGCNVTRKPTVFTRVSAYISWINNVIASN

## O=C(O[C@@H]1Cc2c(O)cc(O)cc2O[C@@H]1c1cc(O)c(O)c(O)c1)c1cc(O)c(O)c(O)c1 [EGCG, Epigallocatechin gallate]
[1]
  inhibition at 100 µg/mL: 92.2%
[2]
  Collagenase inhibition (%): 84.45%

## COc1ccc2c(c1)c(CC(=O)O)c(C)n2C(=O)c1ccc(Cl)cc1 [Indomethacin]
Soybean lipoxygenase
  Inhibition of LOX activity [%]: 99.80%

## O=c1cc(CO)occ1O [kojic acid]
Fungal tyrosinase
  Tyrosinase inhibition [%]: 61.17%
